In BindingDB's records for patent US10392346 (Topivert Pharma, 2019):

Legend:
[1] = target: Proto-oncogene tyrosine-protein kinase Src (Homo sapiens, UniProt P12931); assay: Enzyme Inhibition
Description: The relevant enzyme (3000 ng/mL or 2000 ng/mL respectively, 2.5 μL) is incubated with the test compound (either 1 μg/mL, 0.1 μg/mL, 0.01 μg/mL, or 0.001 μg/mL, 2.5 μL each) for 2 hr at RT. The FRET peptides (8 μM, 2.5 μL), and appropriate ATP solutions (2.5 μL, 800 μM for c-Src, and 60 μM ATP for Syk) are then added to the enzymes/compound mixtures and the mixture incubated for 1 hr. Development reagent (protease, 5 μL) is added for 1 hr prior to detection in a fluorescence microplate reader (Varioskan Flash, ThermoFisher Scientific).

[2] = target: Glycogen synthase kinase-3 alpha (Homo sapiens, UniProt P49840); assay: Enzyme Inhibition
Sequence of Glycogen synthase kinase-3 alpha (P49840 whole entry, canonical isoform): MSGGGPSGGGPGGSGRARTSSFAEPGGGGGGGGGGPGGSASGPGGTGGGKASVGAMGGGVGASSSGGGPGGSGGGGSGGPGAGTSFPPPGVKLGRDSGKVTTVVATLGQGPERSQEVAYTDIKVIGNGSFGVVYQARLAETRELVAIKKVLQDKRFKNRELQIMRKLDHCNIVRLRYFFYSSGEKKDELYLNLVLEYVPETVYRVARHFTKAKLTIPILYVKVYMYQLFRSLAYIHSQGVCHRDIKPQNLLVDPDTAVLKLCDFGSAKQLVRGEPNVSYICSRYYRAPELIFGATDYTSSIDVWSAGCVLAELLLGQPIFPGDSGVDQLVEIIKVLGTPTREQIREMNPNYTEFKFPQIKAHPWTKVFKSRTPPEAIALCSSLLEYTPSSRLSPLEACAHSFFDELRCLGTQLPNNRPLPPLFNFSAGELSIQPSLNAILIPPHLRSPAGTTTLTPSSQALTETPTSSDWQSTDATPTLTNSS
Description: In addition, the concentrations of test compound employed are either 10 μg/mL, 1 μg/mL, 0.1 μg/mL, or 0.01 μg/m: Method 1: The inhibitory activities of test compounds against the p38 MAPKα isoform (MAPK14: Invitrogen) are evaluated indirectly by determining the level of activation/phosphorylation of the down-stream molecule, MAPKAP-K2. The p38 MAPKα protein (80 ng/mL, 2.5 μL) is mixed with the test compound (2.5 μL of either 4 μg/mL, 0.4 μg/mL, 0.04 μg/mL or 0.004 μg/mL) for 2 hr at RT. […] The mixture is incubated for 1 hr at RT. Development reagent (protease, 5 μL) is added for 1 hr prior to detection in a fluorescence microplate reader (Varioskan Flash, ThermoFisher Scientific).

Sequence of Proto-oncogene tyrosine-protein kinase Src (P12931 2-536 limits assumed): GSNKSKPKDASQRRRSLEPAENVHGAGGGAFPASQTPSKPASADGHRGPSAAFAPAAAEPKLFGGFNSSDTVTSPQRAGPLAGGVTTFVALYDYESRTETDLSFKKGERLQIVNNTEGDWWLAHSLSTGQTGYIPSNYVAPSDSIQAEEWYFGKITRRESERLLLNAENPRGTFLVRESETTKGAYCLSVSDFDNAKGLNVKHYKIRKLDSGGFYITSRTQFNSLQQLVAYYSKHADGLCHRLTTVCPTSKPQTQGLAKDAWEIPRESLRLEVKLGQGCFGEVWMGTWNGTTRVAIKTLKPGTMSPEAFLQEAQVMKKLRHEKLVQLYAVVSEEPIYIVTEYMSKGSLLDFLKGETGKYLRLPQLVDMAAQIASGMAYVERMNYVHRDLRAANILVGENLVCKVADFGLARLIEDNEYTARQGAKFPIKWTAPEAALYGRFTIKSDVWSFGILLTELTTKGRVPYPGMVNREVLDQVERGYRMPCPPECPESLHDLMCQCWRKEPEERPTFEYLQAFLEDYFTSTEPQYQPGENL

IC50 [1] [µM] | IC50 [2] [µM] | SMILES
0.02 | 9.19 | COc1cc(Nc2cc(Oc3ccc(NC(=O)Nc4cc(C(C)(C)C)cc(NS(C)(=O)=O)c4OC)c4ccccc34)ccn2)ccc1C(=O)N(C)CCCN1CCS(=O)(=O)CC1 [US10392346, Example 17(ah)]
0.017 | 2.75 | COc1cc(Nc2cc(Oc3ccc(NC(=O)Nc4cc(C(C)(C)C)cc(NS(C)(=O)=O)c4OC)c4ccccc34)ccn2)ccc1C(=O)N(C)CCCN1CC[S+]([O-])CC1 [US10392346, Example 17(ag)]
0.016 | 4 | COc1cc(Nc2cc(Oc3ccc(NC(=O)Nc4cc(C(C)(C)C)cc(N[S+](C)[O-])c4OC)c4ccccc34)ccn2)ccc1C(=O)NCCN1CCN(C)CC1 (stereo unspecified) [US10392346, Example 17(a)]
